Converted amounts (≈) assume the structure as drawn. “Also recorded” adds a separate entry of the source. Where two headings read alike, the source gives them in different places.
Experiments:
B. anthracis Sterne = experiment: microbe, parasite or virus in culture; assay type: cell-based
S. aureus RN4220 (MSSA) = experiment: microbe, parasite or virus in culture; assay type: cell-based
S. aureus - MRSA USA300 = experiment: microbe, parasite or virus in culture; assay type: cell-based
E. faecium - VRE TX0016 = experiment: microbe, parasite or virus in culture; assay type: cell-based
[1] = target: Recombinant S. aureus LtaSSA expressed in E. coli (Staphylococcus aureus, UniProt Q2G093); assay type: cell-based
Chain of Recombinant S. aureus LtaSSA expressed in E. coli (Q2G093 whole entry): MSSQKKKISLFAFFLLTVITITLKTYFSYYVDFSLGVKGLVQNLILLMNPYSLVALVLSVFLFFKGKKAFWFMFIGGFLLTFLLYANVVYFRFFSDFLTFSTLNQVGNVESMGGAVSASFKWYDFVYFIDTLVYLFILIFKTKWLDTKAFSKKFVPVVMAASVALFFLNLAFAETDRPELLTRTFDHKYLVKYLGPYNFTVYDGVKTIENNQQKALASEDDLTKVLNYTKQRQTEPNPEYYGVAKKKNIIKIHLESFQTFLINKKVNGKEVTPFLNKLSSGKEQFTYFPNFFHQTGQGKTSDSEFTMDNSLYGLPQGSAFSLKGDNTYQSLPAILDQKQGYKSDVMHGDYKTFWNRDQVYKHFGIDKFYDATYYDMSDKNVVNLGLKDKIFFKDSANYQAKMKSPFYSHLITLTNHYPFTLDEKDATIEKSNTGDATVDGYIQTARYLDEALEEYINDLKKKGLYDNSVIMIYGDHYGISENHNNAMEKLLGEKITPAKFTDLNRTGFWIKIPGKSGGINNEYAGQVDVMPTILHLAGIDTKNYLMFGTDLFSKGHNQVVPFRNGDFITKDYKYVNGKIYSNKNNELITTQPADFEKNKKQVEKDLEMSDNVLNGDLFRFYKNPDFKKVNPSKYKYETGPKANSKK

E. faecalis - VRE V583 = experiment: microbe, parasite or virus in culture; assay type: cell-based
S. aureus RN4220 = experiment: Growth of S. aureus culture with sub-lethal compound (OD600); details: 1 μM compound, until control culture OD600 1.0
[2] = test system: LTA production in S. aureus; experiment: Inhibition of LTA synthesis in S. aureus (immunoblot); details: sub-lethal concentrations of compound
[3] = 37° C., 18-22 hours, OD600, sigmoidal fit, read-out: IC50

Row | SMILES | IC50 (B. anthracis Sterne; Bacillus anthracis) [µM] | MIC (B. anthracis Sterne; Bacillus anthracis) [µM] | IC50 (S. aureus RN4220 (MSSA); Staphylococcus aureus, MSSA) [µM] | MIC (S. aureus RN4220 (MSSA); Staphylococcus aureus, MSSA) [µM] | production of LTA promoted by plasmid encoded LtaSSA [1] | other results
1 | CC(=O)COC(=O)Cc1coc2ccc3ccccc3c12 [Compound 1771-1, 2-oxopropyl 2-(naphtho[2,1-b]furan-1-yl)acetate] | 169 | > 400 | > 400 | > 400 |  | 
2 | O=C(COC(=O)Cc1c[nH]c2ccccc12)Nc1nnc(-c2ccccc2)o1 [Compound 1771-5, 2-oxo-2-(5-phenyl-1,3,4-oxadiazol-2-ylamino)ethyl 2-(1H-indol-3-yl)acetate] | 88.1 | 200 (≈ 75.3 µg/mL) | 85.6 | > 400 |  | 
3 | COc1cccc(-c2nnc(NC(=O)c3ccc(S(=O)(=O)N(Cc4ccccc4)C(C)C)cc3)o2)c1 [4-(N-benzyl-N-isopropylsulfamoyl)-N-(5-(3-methoxyphenyl)-1,3,4-oxadiazol-2-yl)benzamide] | 1 | 1.6 (≈ 0.811 µg/mL) | 1.2 | 3.1 (≈ 1.57 µg/mL) | abrogated | IC50 (S. aureus - MRSA USA300; Staphylococcus aureus): 1.3 µM; MIC (S. aureus - MRSA USA300; Staphylococcus aureus): 3.1 µM (≈ 1.57 µg/mL); IC50 (E. faecium - VRE TX0016; Enterococcus faecium, VRE): 7.3 µM; MIC (E. faecium - VRE TX0016; Enterococcus faecium, VRE): 50 µM (≈ 25.3 µg/mL); IC50 (E. faecalis - VRE V583; Enterococcus faecalis, VRE): 18.5 µM; MIC (E. faecalis - VRE V583; Enterococcus faecalis, VRE): 50 µM (≈ 25.3 µg/mL); reduced growth of staphylococci (S. aureus RN4220): 75%; LTA production (immunoblot α-LTA) [2]: affect the production of LTA; also recorded: reduced
4 | O=C(COC(=O)Cc1ccccc1)Nc1nnc(-c2ccccc2)o1 [Compound 1771-4, 2-oxo-2-(5-phenyl-1,3,4-oxadiazol-2-ylamino)ethyl 2-phenylacetate] | 224 | > 400 | 242 | > 400 |  | 
5 | CNC(=O)COC(=O)Cc1coc2ccc3ccccc3c12 [Compound 1771-2, 2-(methylamino)-2-oxoethyl 2-(naphtho[2,1-b]furan-1-yl)acetate] | > 400 | > 400 | > 400 | > 400 |  | 
6 | Cc1cc2occ(CC(=O)OCC(=O)Nc3nnc(-c4ccccc4)o3)c2cc1C [Compound 1771-6, 2-oxo-2-(5-phenyl-1,3,4-oxadiazol-2-ylamino)ethyl 2-(5,6-dimethylbenzofuran-3-yl)acetate] | 14.8 | 25 (≈ 10.1 µg/mL) | 15.2 | 50 (≈ 20.3 µg/mL) |  | 
7 | COc1cc(OC)cc(-c2nnc(NC(=O)c3ccc(S(=O)(=O)N(C)c4ccccc4)cc3)o2)c1 [Compound 1650-I01, N-(5-(3,5-dimethoxyphenyl)-1,3,4-oxadiazol-2-yl)-4-(N-methyl-N-henylsulfamoyl)benzamide] |  |  |  |  | abrogated | MIC (B. anthracis Sterne; 37° C., 18-22 hours, OD600): 3.1 µM (≈ 1.53 µg/mL); IC50 (B. anthracis Sterne; [3]): 1.5 µM; MIC (S. aureus - MRSA USA300; 37° C., 18-22 hours, OD600): 6.2 µM (≈ 3.07 µg/mL); IC50 (S. aureus - MRSA USA300; [3]): 1.7 µM; MIC (E. faecium - VRE TX0016; 37° C., 18-22 hours, OD600): 100.0 µM (≈ 49.5 µg/mL); IC50 (E. faecium - VRE TX0016; [3]): 14.6 µM; MIC (E. faecalis - VRE V583; 37° C., 18-22 hours, OD600): 100.0 µM (≈ 49.5 µg/mL); IC50 (E. faecalis - VRE V583; [3]): 55.6 µM; reduced growth of staphylococci (S. aureus RN4220): 50%; MIC (S. aureus RN4220 (MSSA); 37° C., 18-22 hours, OD600): 3.1 µM (≈ 1.53 µg/mL); IC50 (S. aureus RN4220 (MSSA); [3]): 1.3 µM; LTA production (immunoblot α-LTA) [2]: affect the production of LTA; also recorded: reduced
8 | CC(NC(=O)COC(=O)Cc1coc2ccc3ccccc3c12)c1ccccc1 (stereo not drawn) [Compound 1771-3, 2-oxo-2-(1-phenylethylamino)ethyl 2-(naphtho[2,1-b]furan-1-yl)acetate] | > 400 | > 400 | > 400 | > 400 |  | 
9 | CC1CCCCN1S(=O)(=O)c1ccc(C(=O)Nc2nnc(-c3cccs3)o2)cc1 (stereo not drawn) [Compound 1650-M01, 4-(2-methylpiperidin-1-ylsulfonyl)-N-(5-(thiophen-2-yl)-1,3,4-oxadiazol-2-yl)benzamide] | 11.1 | 25 (≈ 10.8 µg/mL) | 7.1 | 25 (≈ 10.8 µg/mL) | abrogated | MIC (S. aureus - MRSA USA300; 37° C., 18-22 hours, OD600): 25.0 µM (≈ 10.8 µg/mL); IC50 (S. aureus - MRSA USA300; Staphylococcus aureus): 8.4 µM; MIC (S. aureus - MRSA USA300; Staphylococcus aureus): 25 µM (≈ 10.8 µg/mL); IC50 (E. faecium - VRE TX0016; Enterococcus faecium, VRE): 19.4 µM; MIC (E. faecium - VRE TX0016; Enterococcus faecium, VRE): 100 µM (≈ 43.3 µg/mL); IC50 (E. faecalis - VRE V583; Enterococcus faecalis, VRE): 36.7 µM; MIC (E. faecalis - VRE V583; Enterococcus faecalis, VRE): 100 µM (≈ 43.3 µg/mL)
10 | O=C(COC(=O)Cc1coc2cc3c(cc12)CCC3)Nc1nnc(-c2ccccc2)o1 [Compound 1771-7, 2-oxo-2-(5-phenyl-1,3,4-oxadiazol-2-ylamino)ethyl 2-(6,7-dihydro-5H-indeno[5,6-b]furan-3-yl)acetate] | 24.1 | 50 (≈ 20.9 µg/mL) | 27.7 | 50 (≈ 20.9 µg/mL) |  | 
